Among the data in patent US11667643B2, “RIP1K inhibitors” (priority 2020, dated 2023) are IC50 values, retold here.

In one experiment the test system is U937 cells. The experiment in a line: U937 cell necroptosis assay (TNFa + zVAD, CellTiter-Glo recovery), functional human RIP1 assay. The format is cell-based. The settings on record: Homo sapiens, U-937, 18 h, read-out: U937 Zvad TNF CTG Recovery, U937, TNFa + zVAD (IC50), U937 cells, zVAD-fmk, TNFa 2 ng/mL, 18 hours, CellTiter-Glo. In outline:
(§1)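 Human U937 cells (50K/well, 60 uM zVAD-fmk in plating medium) and murine L929 cells (10K/well, medium replaced with 40 uM zVAD-fmk) were pre-incubated with compound 1 h at 37 °C. TNFa was then added at a final 2 ng/mL. Viability by CellTiter-Glo luminescence after 18 h.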

Another experiment deals with RIPK1 (Homo sapiens (Human), UniProt Q13546). Nature of the experiment: biochemical. The experiment is classed as biochemical. As to conditions: RIPK1 enzyme 31 ng/well, 30° C. for 30 minutes, luminescence; read-out: RIPK1 ADP-Glo Kinase (IC50). In outline:
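ADP-Glo luminescent assay of RIPK1 at 31 ng/well in Tris-HCl pH 7.4 buffer with MgCl2, BSA, 100 μM DTT and 4 mM MnCl2; compounds run in duplicate. Kinase reaction 30 min at 30 °C, then ADP-Glo 40 min and detection reagent 30 min at room temperature; ADP formation read as luminescence.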

For a further experiment, the system named is L929 cells. Nature of the experiment: L929 cell necroptosis assay (TNFa + zVAD, CellTiter-Glo recovery), functional murine RIP1 assay. The experiment is classed as cell-based. The settings on record: Mus musculus, L929, 18 h, read-out: L929-CTG-recovery, L929, TNFa + zVAD (IC50), L929 cells, zVAD-fmk, TNFa 2 ng/mL, 18 hours, CellTiter-Glo. In outline: as §1
Background: In ATP-based viability assays light output follows the ATP content of the culture.

Molecules are shown by their SMILES.

Chain of RIPK1 (Q13546 whole entry, species assumed): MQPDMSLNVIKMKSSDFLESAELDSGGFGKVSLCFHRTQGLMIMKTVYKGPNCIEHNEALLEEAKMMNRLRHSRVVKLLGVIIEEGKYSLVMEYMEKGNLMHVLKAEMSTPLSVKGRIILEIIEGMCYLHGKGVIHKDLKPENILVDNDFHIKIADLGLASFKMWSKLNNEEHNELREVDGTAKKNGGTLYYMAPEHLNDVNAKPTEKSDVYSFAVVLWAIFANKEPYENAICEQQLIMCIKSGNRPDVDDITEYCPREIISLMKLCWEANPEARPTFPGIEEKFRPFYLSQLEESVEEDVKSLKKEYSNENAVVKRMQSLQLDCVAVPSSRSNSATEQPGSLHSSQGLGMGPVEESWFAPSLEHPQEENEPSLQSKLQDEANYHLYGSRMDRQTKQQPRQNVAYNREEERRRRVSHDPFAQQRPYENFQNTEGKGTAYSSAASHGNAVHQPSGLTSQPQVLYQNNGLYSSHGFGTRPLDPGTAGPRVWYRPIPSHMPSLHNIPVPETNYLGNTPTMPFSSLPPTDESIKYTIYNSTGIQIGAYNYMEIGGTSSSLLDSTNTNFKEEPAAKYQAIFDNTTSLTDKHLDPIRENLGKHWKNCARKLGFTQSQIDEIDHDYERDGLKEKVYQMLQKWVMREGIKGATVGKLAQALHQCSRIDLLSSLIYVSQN

With `Cn1nc2n(c1=O)-c1ccccc1CCC2NC(=O)c1ncn(Cc2c(Cl)cccc2Cl)n1` (racemic) [Compound I-60, (±)-1-(2,6-Dichlorobenzyl)-N-(2-methyl-1-oxo-2,4,5,6-tetrahydro-1H-benzo[f][1,2,4]triazolo[4,3-a]azepin-4-yl)-1H-1,2,4-triazole-3-carboxamide], the IC50 was determined as 35.8 µM in the experiment with U937 cells, 1.29 µM at RIPK1 and 10000 µM with L929 cells.
As for `O=C(NC1CCc2ccccc2-n2c1nc(Cl)c2Cl)c1n[nH]c(Cc2ccccc2)n1` (racemic) [Compound I-80, (±)-5-Benzyl-N-(1,2-dichloro-5,6-dihydro-4H-benzo[f]imidazo[1,2-a]azepin-4-yl)-1H-1,2,4-triazole-3-carboxamide], the IC50 in the experiment on U937 cells turned out to be 83.4 µM; at RIPK1 it was 1.87 µM; in the experiment on L929 cells, 10000 µM.
`O=C(NC1CCc2ccc(CN3CCN(c4ccncc4)CC3)cc2-n2ccnc21)c1ncn(Cc2c(Cl)cccc2Cl)n1` (racemic) [Compound I-47, (±)-1-(2,6-Dichlorobenzyl)-N-(9-((4-(pyridin-4-yl)piperazin-1-yl)methyl)-5,6-dihydro-4H-benzo[f]imidazo[1,2-a]azepin-4-yl)-1H-1,2,4-triazole-3-carboxamide]: the IC50 was found to be 0.0257 µM with U937 cells, 0.0873 µM on RIPK1 and 9.5 µM in the experiment with L929 cells.
As to `O=C(N[C@H]1COc2ccccc2-n2c1noc2=O)c1n[nH]c(Cc2ccc(F)cc2)n1` [Compound I-50, 5-(4-Fluorobenzyl)-N-((4R)-1-oxo-4,5-dihydro-1H-benzo[6][1,2,4]oxadiazolo[4,3-d][1,4]oxazepin-4-yl)-1H-1,2,4-triazole-3-carboxamide], the IC50 in the experiment on U937 cells is 0.246 µM; at RIPK1, 0.109 µM; in the experiment on L929 cells it was 10000 µM.
For `O=C(N[C@H]1COc2ccc(C#Cc3ccccn3)cc2-n2ccnc21)c1n[nH]c(Cc2ccccc2)n1` [Compound I-89, (R)-5-Benzyl-N-(9-(pyridin-2-ylethynyl)-4,5-dihydrobenzo[b]imidazo[1,2-d][1,4]oxazepin-4-yl)-1H-1,2,4-triazole-3-carboxamide] the same measures were 0.0352 µM, 0.108 µM and 7.93 µM.
For `O=C(NC1Cc2ccccc2-n2ccnc21)c1cc(Oc2ccccc2)ccn1` (racemic) [Compound I-67, (±)-N-(4,5-Dihydroimidazo[1,2-a]quinolin-4-yl)-4-phenoxypicolinamide] the same measures were 10000 µM, 11.4 µM and 10000 µM.
For `O=C(N[C@H]1CS(=O)(=O)c2ccccc2-n2nnnc21)c1cc(Cc2ccccc2)on1` [Compound I-25, (R)-5-Benzyl-N-(6,6-dioxido-4,5-dihydrobenzo[b]tetrazolo[1,5-d][1,4]thiazepin-4-yl)isoxazole-3-carboxamide], the IC50 with U937 cells is 28.6 µM; at RIPK1, 0.51 µM; with L929 cells, 10000 µM.
As for `O=C(N[C@H]1CCc2ccc(N3CCC4(CCOCC4)CC3)cc2-n2ccnc21)c1n[nH]c(Cc2ccccc2)n1` [Compound I-83, (S)—N-(9-(3-Oxa-9-azaspiro[5.5]undecan-9-yl)-5,6-dihydro-4H-benzo[f]imidazo[1,2-a]azepin-4-yl)-5-benzyl-1H-1,2,4-triazole-3-carboxamide], the values for the IC50 in the experiment on U937 cells, at RIPK1 and in the experiment on L929 cells were 0.0043 µM, 0.0435 µM and 2.12 µM, respectively.
As for `Cc1cn2c(n1)C(NC(=O)c1ncn(Cc3c(Cl)cccc3Cl)n1)CCc1ccccc1-2` (racemic) [Compound I-35, (±)-1-(2,6-Dichlorobenzyl)-N-(2-methyl-5,6-dihydro-4H-benzo[f]imidazo[1,2-a]azepin-4-yl)-1H-1,2,4-triazole-3-carboxamide], the values for the IC50 in the experiment with U937 cells, at RIPK1 and with L929 cells were 2.68 µM, 2.08 µM and 10000 µM, respectively.
In the case of `CC(C)(O)CCc1ccc2c(c1)-n1ccnc1C(NC(=O)c1n[nH]c(Cc3ccccc3)n1)CC2` (racemic) [Compound I-68, (±)-5-Benzyl-N-(9-(3-hydroxy-3-methylbutyl)-5,6-dihydro-4H-benzo[f]imidazo[1,2-a]azepin-4-yl)-1H-1,2,4-triazole-3-carboxamide], the figures for the IC50 with U937 cells, at RIPK1 and with L929 cells were 0.0252 µM, 0.118 µM and 8.67 µM, respectively.
Turning to `O=C(N[C@H]1CSc2ccccc2-n2nnnc21)c1ncn(Cc2ccc(F)cc2)n1` [Compound I-22, (R)—N-(4,5-Dihydrobenzo[b]tetrazolo[1,5-d][1,4]thiazepin-4-yl)-1-(4-fluorobenzyl)-1H-1,2,4-triazole-3-carboxamide], the IC50 with U937 cells came out at 0.002 µM; on RIPK1, 0.0321 µM; in the experiment on L929 cells it was 2.48 µM.
For the compound `O=C(N[C@H]1COc2ccccc2-n2nnnc21)c1n[nH]c(Cc2ccccc2)n1` [Compound I-3, (R)-5-Benzyl-N-(4,5-dihydrobenzo[b]tetrazolo[1,5-d][1,4]oxazepin-4-yl)-1H-1,2,4-triazole-3-carboxamide], the results for the IC50 with U937 cells, at RIPK1 and in the experiment on L929 cells were 4.08 µM, 0.0582 µM and 10000 µM, respectively.
Take `O=C(N[C@H]1COc2ncccc2-n2c1noc2=O)c1cc(Cc2ccccc2)on1` [Compound I-46, 5-Benzyl-N-((4R)-1-oxo-4,5-dihydro-1H-[1,2,4]oxadiazolo[4,3-d]pyrido[2,3-b][1,4]oxazepin-4-yl)isoxazole-3-carboxamide]: the IC50 was determined as 39.4 µM with U937 cells, 4.41 µM on RIPK1 and 10000 µM with L929 cells.
For the compound `O=C(N[C@H]1CSc2ccccc2-n2nnnc21)c1cc(Cc2ccccc2)on1` [Compound I-23, (R)-5-Benzyl-N-(4,5-dihydrobenzo[b]tetrazolo[1,5-d][1,4]thiazepin-4-yl)isoxazole-3-carboxamide], the IC50 with U937 cells amounted to 0.101 µM; at RIPK1, 0.0429 µM; in the experiment with L929 cells, 10000 µM.
Turning to `O=C1c2nn(Cc3ccccc3)c(Cl)c2CN1[C@H]1COc2ccccc2-n2nnnc21` [Compound I-79], the IC50 in the experiment on U937 cells came out at 16.1 µM; on RIPK1, 0.652 µM; in the experiment with L929 cells, 10000 µM.
On to `O=C(NC1CCc2ccccc2-n2c(Cl)cnc21)c1cc(Cc2ccccc2)on1` (racemic) [Compound I-71, (±)-5-Benzyl-N-(1-chloro-5,6-dihydro-4H-benzo[f]imidazo[1,2-a]azepin-4-yl)isoxazole-3-carboxamide], for which the IC50 came to 3.48 µM in the experiment with U937 cells, 0.58 µM at RIPK1 and 10000 µM in the experiment on L929 cells.
With `O=C(N[C@H]1CSc2ccccc2-n2c1noc2=O)c1n[nH]c(Cc2ccccc2)n1` [Compound I-33, 5-Benzyl-N-((4R)-1-oxo-4,5-dihydro-1H-benzo[b][1,2,4]oxadiazolo[4,3-d][1,4]thiazepin-4-yl)-1H-1,2,4-triazole-3-carboxamide], the IC50 in the experiment on U937 cells is 0.0056 µM; at RIPK1 it was 0.0125 µM; with L929 cells it was 5.16 µM.
`O=C(NC1CCc2ccccc2-n2cnnc21)c1ncn(Cc2ccccc2)n1` (racemic) [Compound I-63, (±)-1-Benzyl-N-(5,6-Dihydro-4H-benzo[f][1,2,4]triazolo[4,3-a]azepin-4-yl)-1H-1,2,4-triazole-3-carboxamide]: the results for the IC50 with U937 cells, at RIPK1 and in the experiment on L929 cells were 0.289 µM, 0.134 µM and 10000 µM, respectively.
With `O=C(NC1COc2ccccc2-n2cccc21)c1n[nH]c(Cc2ccccc2)n1` (racemic) [Compound I-34, (±)-5-Benzyl-N-(6,7-dihydrobenzo[b]pyrrolo[1,2-d][1,4]oxazepin-7-yl)-1H-1,2,4-triazole-3-carboxamide], the results for the IC50 in the experiment on U937 cells, on RIPK1 and in the experiment with L929 cells were 1.54 µM, 0.139 µM and 10000 µM, respectively.
As to `O=C(N[C@H]1COc2ccccc2-n2c1noc2=O)c1n[nH]c(Cc2ccc(F)cc2F)n1` [Compound I-49, 5-(2,4-Difluorobenzyl)-N-((4R)-1-oxo-4,5-dihydro-1H-benzo[b][1,2,4]oxadiazolo[4,3-d][1,4]oxazepin-4-yl)-1H-1,2,4-triazole-3-carboxamide], the IC50 came to 0.717 µM in the experiment with U937 cells, 0.347 µM on RIPK1 and 10000 µM in the experiment on L929 cells.
For the compound `O=C(N[C@H]1CSc2ccccc2-n2c1noc2=O)c1n[nH]c(Cc2ccc(F)cc2)n1` [Compound I-31, 5-(4-Fluorobenzyl)-N-((4R)-1-oxo-4,5-dihydro-1H-benzo[6][1,2,4]oxadiazolo[4,3-d][1,4]thiazepin-4-yl)-1H-1,2,4-triazole-3-carboxamide], the IC50 with U937 cells amounted to 0.014 µM; at RIPK1, 0.0158 µM; in the experiment on L929 cells, 5010 µM.
As for `O=C(NC1CCc2ccccc2-n2cnnc21)c1ncn(Cc2c(Cl)cccc2Cl)n1` (racemic) [Compound I-58, (±)-1-(2,6-Dichlorobenzyl)-N-(5,6-dihydro-4H-benzo[f][1,2,4]triazolo[4,3-a]azepin-4-yl)-1H-1,2,4-triazole-3-carboxamide], the IC50 in the experiment with U937 cells was 0.0743 µM; at RIPK1 it was 0.0573 µM; in the experiment with L929 cells, 10000 µM.
For the compound `O=C(NC1CCc2ccc(N3CCC4(CCOCC4)CC3)cc2-n2ccnc21)c1ncn(Cc2c(Cl)cccc2Cl)n1` (racemic) [Compound I-61, (±)-N-(9-(3-Oxa-9-azaspiro[5.5]undecan-9-yl)-5,6-dihydro-4H-benzo[f]imidazo[1,2-a]azepin-4-yl)-1-(2,6-dichlorobenzyl)-1H-1,2,4-triazole-3-carboxamide], the IC50 in the experiment with U937 cells turned out to be 0.0181 µM; on RIPK1, 0.0862 µM; with L929 cells, 0.106 µM.
